The values that follow come from publication PMC4232510, “Identification of Functionally Important Residues of the Rat P2X4 Receptor by Alanine Scanning Mutagenesis of the Dorsal Fin and Left Flipper Domains” (PLoS ONE, 2014).

Common to all, as to assay: whole-cell patch clamp, HEK293T cells expressing mutant
What all share (assay type): cell-based
Common to all, as to settings: for relative responsiveness: 100 µM agonist 2 s, relative to ATP (100%)
(In patch-clamp work, channel activity is measured electrically.)

One assay has as its target T1, rP2X4R N208A mutant (Rattus norvegicus, UniProt P51577, N208A).
T1 construct: expressed in transfected cells; host or cells: HEK293T
T1 sequence (P51577 1-388 N208A): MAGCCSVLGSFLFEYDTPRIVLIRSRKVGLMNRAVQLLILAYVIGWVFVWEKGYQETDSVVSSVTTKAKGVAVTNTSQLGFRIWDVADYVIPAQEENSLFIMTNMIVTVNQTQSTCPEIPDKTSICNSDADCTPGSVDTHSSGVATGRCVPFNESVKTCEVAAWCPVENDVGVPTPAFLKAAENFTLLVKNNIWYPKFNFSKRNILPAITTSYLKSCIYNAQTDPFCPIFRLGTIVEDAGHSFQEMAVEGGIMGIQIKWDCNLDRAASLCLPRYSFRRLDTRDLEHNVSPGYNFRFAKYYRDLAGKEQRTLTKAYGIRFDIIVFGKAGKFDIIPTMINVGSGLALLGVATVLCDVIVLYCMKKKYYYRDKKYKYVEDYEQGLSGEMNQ

For a further assay, the target named is T2, rP2X4R P290A mutant (Rattus norvegicus, UniProt P51577, P290A).
T2 construct: expressed in transfected cells; host or cells: HEK293T
T2 sequence (P51577 1-388 P290A): T1 sequence (P51577 1-388 N208A) with A208N, P290A

In another assay the target is T3, rP2X4R T281A mutant (Rattus norvegicus, UniProt P51577, T281A).
T3 construct: expressed in transfected cells; host or cells: HEK293T
T3 sequence (P51577 1-388 T281A): T1 sequence (P51577 1-388 N208A) with A208N, T281A

Setting [1] is: 100 µM ATP 60 s, biexponential fit.
[2] abbreviates: contribution of τdes2, 100 µM ATP 60 s.
Setting [3] is: decay after removal of 1 or 3 µM ATP, 3 µM IVM.
[4] abbreviates: naïve receptors, 2–5 s application.
Where [5] appears, read: 3 µM IVM 4-6 min vs IVM-untreated.

Numbering of substitutions follows the chain as printed.

As to “2′(3′-O-(4-Benzoylbenzoyl)adenosine 5′-triphosphate [BzATP]”, the relative responsiveness on rP2X4R N208A mutant is listed as 33.4±5.4%; at rP2X4R P290A mutant, 16.9±3.2 %; at rP2X4R T281A mutant, 26.7±3.9%.
Regarding `CSc1nc(N)c2ncn([C@@H]3O[C@H](COP(=O)(O)OP(=O)(O)OP(=O)(O)O)[C@@H](O)[C@H]3O)c2n1` [2-MeS-ATP, 2-(Methylthio)adenosine 5′-triphosphate], the results for the relative responsiveness at rP2X4R N208A mutant, at rP2X4R P290A mutant and on rP2X4R T281A mutant were 60.0±11.2%, 50.7±3.7% and 69.6±5.1%, respectively.
One may read the EC50 as the concentration that produces a half-maximal response. A higher EC50 goes with lower potency in that assay. As for `Nc1ncnc2c1ncn2[C@@H]1O[C@H](COP(=O)(O)OP(=O)(O)OP(=O)(O)O)[C@@H](O)[C@H]1O` [ATP], the τdes1 at rP2X4R N208A mutant (setting [1]) is on record as 1.1 ± 0.8 s; on rP2X4R P290A mutant (setting [1]) it was 0.8 ± 0.1 s; at rP2X4R T281A mutant (setting [1]), 2.4 ± 0.4 s. Also, the values for the τdes2 on rP2X4R N208A mutant (setting [1]), on rP2X4R P290A mutant (setting [1]) and on rP2X4R T281A mutant (setting [1]) were 8.7 ± 4.8 s, 12.0 ± 1.5 s and 15.6 ± 2.3 s, respectively. In addition, the Imax came out at 1.7 ± 0.3 nA at rP2X4R N208A mutant (100–1000 µM ATP), 0.9 ± 0.1 nA at rP2X4R P290A mutant (100–1000 µM ATP) and 2.3 ± 0.3 nA at rP2X4R T281A mutant (100–1000 µM ATP). Also, the “Imax+IVM” value is 3.6 ± 0.3 nA at rP2X4R N208A mutant (ATP after 3 µM IVM 4-6 min), 3.3 ± 0.5 nA at rP2X4R P290A mutant (ATP after 3 µM IVM 4-6 min) and 4.8 ± 0.9 nA at rP2X4R T281A mutant (ATP after 3 µM IVM 4-6 min). For the same compound, the “A2 /(A1+A2)” value on rP2X4R N208A mutant (setting [2]) worked out at 77 ± 4%; at rP2X4R P290A mutant (setting [2]), 53 ± 3%; at rP2X4R T281A mutant (setting [2]), 72 ± 12%. Besides, the “τoff +IVM” value was 9.1 ± 0.2 s on rP2X4R N208A mutant (setting [3]), 13 ± 1.4 s at rP2X4R P290A mutant (setting [3]) and 13 ± 1.0 s on rP2X4R T281A mutant (setting [3]). For the same compound, the EC50 on rP2X4R N208A mutant (setting [4]) stood at 7.6 ± 2.1 µM; on rP2X4R P290A mutant (setting [4]), 8 ± 3.4 µM; at rP2X4R T281A mutant (setting [4]), 8.2 ± 2.8 µM. Also, the τdes at rP2X4R N208A mutant (weighted, 100 µM ATP 60 s) turned out to be 6.8 ± 3.5 s; on rP2X4R P290A mutant (weighted, 100 µM ATP 60 s), 6.6 ± 0.5 s; on rP2X4R T281A mutant (weighted, 100 µM ATP 60 s), 12 ± 2.4 s.
Regarding `Nc1ncnc2c1ncn2[C@@H]1O[C@H](CO[P@](=O)(O)O[P@](=O)(O)O[P@@](=O)(O)S)[C@@H](O)[C@H]1O` [ATPγS, Adenosine 5′-(γ-thio)triphosphate], the relative responsiveness on rP2X4R N208A mutant turned out to be 42.2±5.2%; at rP2X4R P290A mutant it was 37.0±11.0%; at rP2X4R T281A mutant, 50.2±5.9%.
Consider `CC[C@H](C)[C@H]1O[C@]2(CC[C@@H]1C)C[C@@H]1C[C@@H](C/C=C(\C)[C@@H](O[C@H]3C[C@H](OC)[C@@H](O[C@H]4C[C@H](OC)[C@@H](O)[C@H](C)O4)[C@H](C)O3)[C@@H](C)/C=C/C=C3\CO[C@@H]4[C@H](O)C(C)=C[C@@H](C(=O)O1)[C@]34O)O2` [IVM, ivermectin], for which the entries for the “Fold incr. Imax” value at rP2X4R N208A mutant (setting [5]), on rP2X4R P290A mutant (setting [5]) and on rP2X4R T281A mutant (setting [5]) were 2.3 ± 0.5 fold, 3.7 ± 0.2 fold and 2.1 ± 0.2 fold, respectively.
In the case of `Nc1ncnc2c1ncn2C1OC(COP(=O)(O)CP(=O)(O)OP(=O)(O)O)C(O)C1O` (stereo not drawn) [α,β-meATP, α,β-methyleneadenosine 5′-triphosphate], the relative responsiveness on rP2X4R N208A mutant came to 28.5±2.3%; on rP2X4R P290A mutant, 17.8±2.4 %; at rP2X4R T281A mutant, 28.2±5.5%.
